Measured values: the kinase profiling compilation of Christmann-Franck et al. (2016)

How the values were obtained:
Test in all cases: radiometric filter-binding kinase assay, Kinase HotSpot
Conditions in all cases: compound 0.5 µM; ATP 10 µM
[1] = biological target: PAK1 (human) (UniProt Q13153)
[2] = biological target: NEK7 (human) (UniProt Q8TDX7)
[3] = biological target: PAK3 (human) (UniProt O75914)
[4] = biological target: OXSR1 (human) (UniProt O95747)
[5] = biological target: STK11 (human) (UniProt Q15831)
[6] = biological target: NEK9 (human) (UniProt Q8TD19)
[7] = biological target: EPHA1 (human) (UniProt P21709)
[8] = biological target: FES (human) (UniProt P07332)
[9] = biological target: DYRK1B (human) (UniProt Q9Y463)
[10] = biological target: CDC42BPA (human) (UniProt Q5VT25)
[11] = biological target: TSSK2 (human) (UniProt Q96PF2)
[12] = biological target: SRMS (human) (UniProt Q9H3Y6)
[13] = biological target: NEK11 (human) (UniProt Q8NG66)
Sequence of NEK11 (human) (Q8NG66 whole entry, looked up): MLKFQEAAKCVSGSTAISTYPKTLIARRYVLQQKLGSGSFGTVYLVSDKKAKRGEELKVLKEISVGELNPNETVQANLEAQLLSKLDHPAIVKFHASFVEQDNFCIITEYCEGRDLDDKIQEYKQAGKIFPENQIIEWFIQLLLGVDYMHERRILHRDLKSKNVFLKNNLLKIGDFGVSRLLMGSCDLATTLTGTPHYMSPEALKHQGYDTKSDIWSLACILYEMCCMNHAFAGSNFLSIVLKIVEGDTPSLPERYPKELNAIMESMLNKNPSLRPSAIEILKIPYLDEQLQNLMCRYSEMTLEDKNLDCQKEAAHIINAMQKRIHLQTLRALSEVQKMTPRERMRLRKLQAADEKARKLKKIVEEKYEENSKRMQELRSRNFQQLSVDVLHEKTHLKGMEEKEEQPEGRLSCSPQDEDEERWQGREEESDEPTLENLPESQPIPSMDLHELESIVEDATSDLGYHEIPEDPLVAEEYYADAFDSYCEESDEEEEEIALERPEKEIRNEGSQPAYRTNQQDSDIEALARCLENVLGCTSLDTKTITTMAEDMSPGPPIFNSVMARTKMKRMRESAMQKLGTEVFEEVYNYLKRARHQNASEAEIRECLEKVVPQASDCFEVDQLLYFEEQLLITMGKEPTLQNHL

[14] = biological target: IKBKE (human) (UniProt Q14164)
[15] = biological target: MATK (human) (UniProt P42679)
[16] = biological target: PIM2 (human) (UniProt Q9P1W9)
Sequence of PIM2 (human) (Q9P1W9 whole entry, looked up): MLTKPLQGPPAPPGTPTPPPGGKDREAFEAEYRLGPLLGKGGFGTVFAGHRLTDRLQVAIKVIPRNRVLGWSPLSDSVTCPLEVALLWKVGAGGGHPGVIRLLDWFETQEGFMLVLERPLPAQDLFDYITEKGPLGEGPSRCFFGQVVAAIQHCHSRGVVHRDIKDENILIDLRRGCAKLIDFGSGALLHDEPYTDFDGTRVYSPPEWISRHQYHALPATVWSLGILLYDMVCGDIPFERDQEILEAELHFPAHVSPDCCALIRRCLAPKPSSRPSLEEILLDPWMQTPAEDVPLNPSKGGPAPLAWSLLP

[17] = biological target: MAPK9 (human) (UniProt P45984)
[18] = biological target: PRKCD (human) (UniProt Q05655)
[19] = biological target: RPS6KB2 (human) (UniProt Q9UBS0)
[20] = biological target: ROCK2 (human) (UniProt O75116)
[21] = biological target: NUAK1 (human) (UniProt O60285)
[22] = biological target: ADRBK1 (human) (UniProt P25098)
[23] = biological target: MET (human) (UniProt P08581)
[24] = biological target: TAOK2 (human) (UniProt Q9UL54)
[25] = biological target: PTK2 (human) (UniProt Q05397)
[26] = biological target: PTK6 (human) (UniProt Q13882)
[27] = biological target: CSNK1G2 (human) (UniProt P78368)
[28] = biological target: MST4 (human) (UniProt Q9P289)
Sequence of MST4 (human) (Q9P289 whole entry, looked up): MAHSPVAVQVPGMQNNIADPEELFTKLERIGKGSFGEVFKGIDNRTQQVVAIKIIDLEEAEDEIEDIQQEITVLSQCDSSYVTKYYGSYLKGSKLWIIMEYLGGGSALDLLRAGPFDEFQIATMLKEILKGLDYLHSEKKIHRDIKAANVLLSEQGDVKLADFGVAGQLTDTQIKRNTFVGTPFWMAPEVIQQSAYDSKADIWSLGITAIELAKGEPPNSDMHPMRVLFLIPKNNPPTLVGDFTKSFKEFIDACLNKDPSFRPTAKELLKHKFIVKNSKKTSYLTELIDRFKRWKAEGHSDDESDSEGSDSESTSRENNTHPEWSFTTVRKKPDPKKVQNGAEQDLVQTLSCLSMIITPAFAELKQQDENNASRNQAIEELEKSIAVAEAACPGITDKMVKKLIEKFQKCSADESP

[29] = biological target: PTK2B (human) (UniProt Q14289)
[30] = biological target: IKBKB (human) (UniProt O14920)
[31] = biological target: RET (human) (UniProt P07949)
Sequence of RET (human) (P07949 whole entry, looked up): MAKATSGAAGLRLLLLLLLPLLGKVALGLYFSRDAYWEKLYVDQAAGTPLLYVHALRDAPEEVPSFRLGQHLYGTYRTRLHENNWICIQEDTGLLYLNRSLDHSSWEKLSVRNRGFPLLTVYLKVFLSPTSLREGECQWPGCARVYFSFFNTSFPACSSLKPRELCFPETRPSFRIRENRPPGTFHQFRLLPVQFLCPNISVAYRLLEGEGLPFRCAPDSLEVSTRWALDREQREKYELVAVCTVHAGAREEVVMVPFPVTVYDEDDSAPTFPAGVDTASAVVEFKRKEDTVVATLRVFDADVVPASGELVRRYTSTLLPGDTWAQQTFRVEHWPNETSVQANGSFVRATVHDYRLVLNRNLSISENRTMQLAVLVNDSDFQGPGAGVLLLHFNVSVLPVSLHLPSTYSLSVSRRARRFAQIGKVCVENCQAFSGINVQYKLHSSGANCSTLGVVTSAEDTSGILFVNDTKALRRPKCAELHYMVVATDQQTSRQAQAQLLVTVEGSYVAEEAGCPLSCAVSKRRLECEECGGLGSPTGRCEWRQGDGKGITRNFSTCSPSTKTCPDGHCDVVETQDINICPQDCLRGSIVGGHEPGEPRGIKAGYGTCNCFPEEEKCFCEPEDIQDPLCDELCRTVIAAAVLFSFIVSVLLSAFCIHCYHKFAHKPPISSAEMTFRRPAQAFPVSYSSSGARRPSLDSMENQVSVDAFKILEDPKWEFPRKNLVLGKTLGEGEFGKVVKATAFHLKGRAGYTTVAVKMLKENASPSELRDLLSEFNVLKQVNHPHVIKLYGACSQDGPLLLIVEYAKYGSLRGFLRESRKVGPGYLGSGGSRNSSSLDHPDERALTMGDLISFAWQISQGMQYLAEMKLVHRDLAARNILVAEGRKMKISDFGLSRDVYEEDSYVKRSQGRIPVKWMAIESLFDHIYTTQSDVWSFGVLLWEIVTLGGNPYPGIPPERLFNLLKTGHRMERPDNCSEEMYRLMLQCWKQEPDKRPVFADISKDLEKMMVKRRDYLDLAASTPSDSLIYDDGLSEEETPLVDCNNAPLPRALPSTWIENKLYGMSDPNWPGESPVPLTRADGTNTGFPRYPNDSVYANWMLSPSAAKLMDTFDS

[32] = biological target: ULK1 (human) (UniProt O75385)
Sequence of ULK1 (human) (O75385 whole entry, looked up): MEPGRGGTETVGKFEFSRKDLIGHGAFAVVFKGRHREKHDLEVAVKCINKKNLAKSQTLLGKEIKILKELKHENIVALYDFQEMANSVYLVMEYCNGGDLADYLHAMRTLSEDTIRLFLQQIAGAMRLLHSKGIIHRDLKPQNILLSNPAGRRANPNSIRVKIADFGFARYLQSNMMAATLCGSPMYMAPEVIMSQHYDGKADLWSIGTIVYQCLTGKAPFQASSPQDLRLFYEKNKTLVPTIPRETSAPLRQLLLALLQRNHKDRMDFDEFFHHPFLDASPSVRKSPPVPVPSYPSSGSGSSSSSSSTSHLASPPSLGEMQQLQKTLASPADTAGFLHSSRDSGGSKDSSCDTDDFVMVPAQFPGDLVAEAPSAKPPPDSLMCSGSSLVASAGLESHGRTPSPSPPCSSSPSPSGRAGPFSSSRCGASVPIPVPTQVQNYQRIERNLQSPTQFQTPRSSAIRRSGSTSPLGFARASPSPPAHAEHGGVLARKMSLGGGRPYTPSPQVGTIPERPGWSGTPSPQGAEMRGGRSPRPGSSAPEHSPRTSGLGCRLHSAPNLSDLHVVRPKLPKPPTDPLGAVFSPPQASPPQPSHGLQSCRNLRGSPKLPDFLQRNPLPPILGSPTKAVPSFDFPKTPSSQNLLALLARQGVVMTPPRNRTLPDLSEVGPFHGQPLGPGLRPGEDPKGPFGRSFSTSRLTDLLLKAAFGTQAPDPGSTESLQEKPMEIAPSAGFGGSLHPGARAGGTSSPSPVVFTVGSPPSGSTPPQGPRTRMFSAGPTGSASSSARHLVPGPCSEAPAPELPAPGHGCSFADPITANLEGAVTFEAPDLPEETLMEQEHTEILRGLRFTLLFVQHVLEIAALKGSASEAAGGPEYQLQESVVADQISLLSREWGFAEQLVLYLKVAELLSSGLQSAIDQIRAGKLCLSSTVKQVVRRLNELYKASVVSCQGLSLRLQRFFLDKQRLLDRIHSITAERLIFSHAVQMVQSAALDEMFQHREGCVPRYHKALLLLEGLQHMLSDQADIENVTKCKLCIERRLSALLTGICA

[33] = biological target: CAMK2D (human) (UniProt Q13557)
Sequence of CAMK2D (human) (Q13557 whole entry, looked up): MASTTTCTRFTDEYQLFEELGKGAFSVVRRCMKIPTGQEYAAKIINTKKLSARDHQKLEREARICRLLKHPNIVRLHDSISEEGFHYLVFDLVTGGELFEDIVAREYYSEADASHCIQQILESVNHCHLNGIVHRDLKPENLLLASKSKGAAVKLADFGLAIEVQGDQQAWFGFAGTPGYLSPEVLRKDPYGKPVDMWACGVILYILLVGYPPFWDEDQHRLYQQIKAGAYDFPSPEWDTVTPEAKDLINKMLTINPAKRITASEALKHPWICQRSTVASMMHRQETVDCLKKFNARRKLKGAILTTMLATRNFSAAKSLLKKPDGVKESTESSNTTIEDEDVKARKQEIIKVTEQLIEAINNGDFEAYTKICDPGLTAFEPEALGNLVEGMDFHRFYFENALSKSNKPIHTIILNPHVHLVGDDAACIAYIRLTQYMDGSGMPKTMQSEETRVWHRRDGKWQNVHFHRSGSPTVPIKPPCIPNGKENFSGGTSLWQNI

[34] = biological target: MUSK (human) (UniProt O15146)
[35] = biological target: MAP4K4 (human) (UniProt O95819)
[36] = biological target: STK3 (human) (UniProt Q13188)
[37] = biological target: CAMK2G (human) (UniProt Q13555)
Sequence of CAMK2G (human) (Q13555 whole entry, looked up): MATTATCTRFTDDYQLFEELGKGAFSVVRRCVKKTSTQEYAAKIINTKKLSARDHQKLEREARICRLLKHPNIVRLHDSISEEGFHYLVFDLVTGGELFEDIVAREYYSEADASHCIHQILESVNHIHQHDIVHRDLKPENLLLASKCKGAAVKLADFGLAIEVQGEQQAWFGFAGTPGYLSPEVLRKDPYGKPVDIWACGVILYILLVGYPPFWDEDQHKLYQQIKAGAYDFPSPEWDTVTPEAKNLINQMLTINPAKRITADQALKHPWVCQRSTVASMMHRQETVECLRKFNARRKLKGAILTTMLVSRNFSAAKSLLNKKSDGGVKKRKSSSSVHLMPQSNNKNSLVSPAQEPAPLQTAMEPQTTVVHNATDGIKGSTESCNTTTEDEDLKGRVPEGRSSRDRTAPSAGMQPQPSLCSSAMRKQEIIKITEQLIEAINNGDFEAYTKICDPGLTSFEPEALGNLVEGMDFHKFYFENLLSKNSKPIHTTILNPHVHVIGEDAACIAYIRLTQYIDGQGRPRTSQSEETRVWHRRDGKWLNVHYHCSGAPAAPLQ

[38] = biological target: CAMK1G (human) (UniProt Q96NX5)
[39] = biological target: GSK3B (human) (UniProt P49841)
Sequence of GSK3B (human) (P49841 whole entry, looked up): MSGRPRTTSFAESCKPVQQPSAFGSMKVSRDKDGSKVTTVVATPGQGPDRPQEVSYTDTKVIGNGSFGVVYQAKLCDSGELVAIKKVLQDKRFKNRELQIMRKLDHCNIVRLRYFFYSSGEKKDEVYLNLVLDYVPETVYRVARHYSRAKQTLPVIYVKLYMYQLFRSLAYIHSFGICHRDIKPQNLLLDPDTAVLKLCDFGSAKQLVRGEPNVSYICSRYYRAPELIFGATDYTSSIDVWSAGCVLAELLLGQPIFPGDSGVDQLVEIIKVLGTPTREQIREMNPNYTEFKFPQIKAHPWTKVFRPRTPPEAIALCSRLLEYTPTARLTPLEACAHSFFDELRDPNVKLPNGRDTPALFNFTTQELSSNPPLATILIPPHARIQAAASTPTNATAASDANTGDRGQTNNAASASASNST

[40] = biological target: MARK1 (human) (UniProt Q9P0L2)
[41] = biological target: EPHA7 (human) (UniProt Q15375)
[42] = biological target: FRK (human) (UniProt P42685)

Compound: O=C(Nc1ccc(Cl)cc1)c1ccccc1NCc1ccncc1
- residual activity [1]: 94.9%
- residual activity [2]: 103%
- residual activity [3]: 95.5%
- residual activity [4]: 96.8%
- residual activity [5]: 93.5%
- residual activity [6]: 91.2%
- residual activity [7]: 97%
- residual activity [8]: 96.6%
- residual activity [9]: 106%
- residual activity [10]: 90.5%
- residual activity [11]: 86.3%
- residual activity [12]: 97.9%
- residual activity [13]: 104%
- residual activity [14]: 98.9%
- residual activity [15]: 99.3%
- residual activity [16]: 99.5%
- residual activity [17]: 102%
- residual activity [18]: 84.7%
- residual activity [19]: 105%
- residual activity [20]: 93.8%
- residual activity [21]: 96.5%
- residual activity [22]: 98.2%
- residual activity [23]: 92.2%
- residual activity [24]: 102%
- residual activity [25]: 95.7%
- residual activity [26]: 63.6%
- residual activity [27]: 88.3%
- residual activity [28]: 90.9%
- residual activity [29]: 89.3%
- residual activity [30]: 99.3%
- residual activity [31]: 58.9%
- residual activity [32]: 86.9%
- residual activity [33]: 101%
- residual activity [34]: 95.9%
- residual activity [35]: 88.7%
- residual activity [36]: 94.2%
- residual activity [37]: 89.2%
- residual activity [38]: 101%
- residual activity [39]: 89.3%
- residual activity [40]: 94.7%
- residual activity [41]: 95%
- residual activity [42]: 62.8%

Compound: CC(C)n1cnc2c(Nc3cccc(Cl)c3)nc(NCCO)nc21
- residual activity [1]: 97.1%
- residual activity [2]: 93.9%
- residual activity [3]: 96.7%
- residual activity [4]: 97.7%
- residual activity [5]: 76.1%
- residual activity [6]: 81.1%
- residual activity [7]: 94.1%
- residual activity [8]: 66.2%
- residual activity [9]: 78.8%
- residual activity [10]: 83.9%
- residual activity [11]: 107%
- residual activity [12]: 85.1%
- residual activity [13]: 109%
- residual activity [14]: 97.6%
- residual activity [15]: 93.3%
- residual activity [16]: 97%
- residual activity [17]: 101%
- residual activity [18]: 89.1%
- residual activity [19]: 97%
- residual activity [20]: 97.5%
- residual activity [21]: 67.3%
- residual activity [22]: 96%
- residual activity [23]: 83.9%
- residual activity [24]: 97.2%
- residual activity [25]: 68.9%
- residual activity [26]: 90.2%
- residual activity [27]: 20.6%
- residual activity [28]: 87.9%
- residual activity [29]: 85%
- residual activity [30]: 102%
- residual activity [31]: 82.9%
- residual activity [32]: 77.6%
- residual activity [33]: 84.2%
- residual activity [34]: 58.6%
- residual activity [35]: 75.5%
- residual activity [36]: 94.6%
- residual activity [37]: 106%
- residual activity [38]: 98.7%
- residual activity [39]: 96%
- residual activity [40]: 87.6%
- residual activity [41]: 87.1%
- residual activity [42]: 94.2%

Compound: Cc1cc2ncc(-c3ccccc3)nc2cc1C
- residual activity [1]: 97.8%
- residual activity [2]: 102%
- residual activity [3]: 96.2%
- residual activity [4]: 85.6%
- residual activity [5]: 94%
- residual activity [6]: 93.1%
- residual activity [7]: 99.9%
- residual activity [8]: 97.3%
- residual activity [9]: 106%
- residual activity [10]: 81.2%
- residual activity [11]: 87.5%
- residual activity [12]: 93.5%
- residual activity [13]: 104%
- residual activity [14]: 101%
- residual activity [15]: 95.4%
- residual activity [16]: 81%
- residual activity [17]: 104%
- residual activity [18]: 92.3%
- residual activity [19]: 98.7%
- residual activity [20]: 88.1%
- residual activity [21]: 92.3%
- residual activity [22]: 92.5%
- residual activity [23]: 95.1%
- residual activity [24]: 105%
- residual activity [25]: 92.5%
- residual activity [26]: 93.6%
- residual activity [27]: 86.5%
- residual activity [28]: 97.6%
- residual activity [29]: 92.1%
- residual activity [30]: 101%
- residual activity [31]: 88%
- residual activity [32]: 84.1%
- residual activity [33]: 88.1%
- residual activity [34]: 102%
- residual activity [35]: 85%
- residual activity [36]: 98.9%
- residual activity [37]: 105%
- residual activity [38]: 101%
- residual activity [39]: 79.5%
- residual activity [40]: 106%
- residual activity [41]: 96.6%
- residual activity [42]: 99.1%
